Measured values reported in patent publication US12258424B2, “Polypeptides and compositions comprising the same” (priority 2020, dated 2025).
Residues, ends and D or L forms follow the SMILES beside them.

Key:
[1] = molecular target: T1, recombinant human PD-L1 ECD protein (Homo sapiens, UniProt Q9NZQ7); assay: SPR binding kinetics and affinity to immobilized human PD-L1; details: for kon: read-out: Ka
T1 construct: against the recombinant human PD-L1 ECD protein were evaluated using SPR; purchased G&P Biosciences FCL0784B
Experimental: In such aspects, the equilibrium dissociate constant KD value against recombinant human PD-L1 can be determined according to an KD to PD-L1 SPR Assay. The KD to PD-L1 SPR Assay can include the use of Surface Plasmon Resonance (SPR), such as the B14500, Biosensing Instrument, and can include the following procedures. The PD-L1 protein can be diluted to 10 μg/mL with sodium acetate buffer (pH 5.0, GE Healthcare, PA) and covalently coated onto a CM5 sensor chip (CM Dextran Sensor Chip, Biosensing Instrument) using the standard Amine Coupling Kit (GE Healthcare, PA). Approximately 6500 RU of PD-L1 protein are immobilized onto the chip. A second channel is used as a reference. HBS-EP+ buffer (GE Healthcare) can be employed at a flow rate of 60 μL/min. A series of concentrations of each peptide (15, 30, 60, 125, 250, 500, 1000, 5000 and 10,000 nM) is prepared in HBS-EP+ running buffer to obtain the equilibrium dissociation constant (KD) values of the peptides. The CM5 sensor chip can be regenerated with 10 mM NaOH for 20 s. The results can be analyzed using the software of Bi data analysis software.
Evaluation of Binding Kinetics and Affinity By Surface Plasmon Resonance (SPR). Binding affinities of the PD-L1 specific peptides for human PD-L1 protein were determined by SPR (B14500, Biosensing Instrument). PD-L1 protein was diluted to 10 μg/mL with sodium acetate buffer (pH 5.0, GE Healthcare, PA) and covalently coated onto a CM5 sensor chip (CM Dextran Sensor Chip, Biosensing Instrument) using the standard Amine Coupling Kit (GE Healthcare, PA). Approximately 6500 RU of PD-L1 protein were immobilized onto the chip. A second channel was used as a reference. HBS-EP+ buffer (GE Healthcare) was employed at a flow rate of 60 μL/min. A series of concentrations of each peptide (15, 30, 60, 125, 250, 500, 1000, 5000 and 10,000 nM) were prepared in HBS-EP+ running buffer to obtain the equilibrium dissociation constant (KD) values of the peptides. The CM5 sensor chip was regenerated with 10 mM NaOH for 20 seconds. The results were analyzed using the software of Bi data analysis software. Binding affinities of the anti-PD-L1 peptides to BSA was also assessed following the procedure for human PD-L1.

DU145 cancer cell = assay type: cell-based, human; details: for Blocking Efficiency (%): DU-145 cancer cells; for IC50: 2 h
Experimental: (§1) Ninety-six-well plates were coated with 100 ng of PD-L1 protein (G&P Biosciences, human PD-L1 ECD, cat #FCL0784B. mouse PD-L1, cat #FCL3502B) and later blocked with 2% BSA for 2 hours at room temperature. Various concentrations of peptides were loaded into the wells and incubated for 1 hour at room temperature. […] Streptavidin-HRP (R & D systems) and chromogenic substrate were added into the wells. OD450 was then recorded and referenced to OD540.
The blocking efficiency of the anti-PD-L1 peptides at 10 μM (FIG. 2c). […] The IC50 of each peptide was also determined using recombinant human PD-L1 protein and DU-145 cancer cells.

4T1 cancer cell = assay type: cell-based, mouse; details: for Blocking Efficiency (%): 4T1 cancer cell; for IC50: 2 h
[2] = molecular target: human PD-L1/CD80 interaction (Homo sapiens, UniProt Q9NZQ7); assay: Blockade of the CD80/PD-L1 interaction; assay type: binding; details: at 10 μM, FIG. 8a
[3] = test system: Jurkat T cells co-cultured with DU-145 cancer cells; assay: Jurkat T cell proliferation in co-culture with DU-145 cells (CellTiter-Glo); assay type: cell-based, human; details: peptide 5 μM, 24 hours
Experimental: Proliferation and Apoptosis Assays. […] Briefly, 3×10^4 Jurkat T cells were cultured alone or co-cultured with 1.5×10^5 DU-145 cancer cells in a 24-well plate for the proliferation assay. For the apoptosis assay, 6×10^4 Jurkat T cells were cultured alone or co-cultured with 3×10^5 DU-145 cancer cells in a 6-well plate. After incubation with the anti-PD-L1 peptides (5 μM) or anti-PD-L1 antibody (1 μM) for 24 hours, Jurkat T cells were harvested from the supernatant. Proliferation of Jurkat cells was determined using the CellTiter-Glo luminescent cell viability assay (Promega, WI), and apoptosis of the cells were determined using the Dead Cell Apoptosis Kit with Annexin V Alexa Fluor® 488 and Propidium Iodide (Thermo-Fisher Scientific, Pittsburgh, PA) as we described before^21.

mPD-L1 = mPD-L1 (Mus musculus, UniProt Q9EP73); assay: Blockade of the mouse PD-1/PD-L1 interaction, mouse PD-L1 protein; assay type: binding; parameters: purchased G&P Biosciences FCL3502B (PD-L1); details: mouse PD-L1 protein
Experimental: as §1

hPD-L1 [4] = molecular target: T2, hPD-L1 (Homo sapiens, UniProt Q9NZQ7); assay: Blockade of the PD-1/PD-L1 interaction, plate coated with human PD-L1 protein; assay type: binding; parameters: PD-L1 protein (G&P Biosciences, human PD-L1 ECD, cat #FCL0784B); purchased G&P Biosciences FCL0784B (PD-L1); details: for Blocking Efficiency (%): human PD-L1 protein
Experimental: as §1

[5] = Proteolytic stability in 50% human serum (LC-MS); assay type: in vitro ADME
Experimental: Half-life in 50% human serum. Proteolytic stability of the peptides was investigated using LC-MS. Solutions of the anti-PD-L1 peptides were incubated with 50% human serum at […], aliquots were taken at specific time points for processing and subsequent LC-MS analysis.

PD1/PD-L1 = PD1/PD-L1 (Homo sapiens, UniProt Q9NZQ7); assay: IC50 and blocking efficiency against PD1/PD-L1 (Table 5); assay type: binding
Experimental: (§2) Blocking efficiency at 10 μM/IC50 against human and mouse PD1/PD-L1 (ELISA). […] 100 ng of recombinant human PD-L1 protein was coated in 96-well plates at 4° C. for 16 h with shaking over an orbital shaker. Unbound protein was removed by washing twice with PBS (pH 7.2-7.4), 2% BSA was added for 1.5 h at 37° C. to block the plate. Specific concentrations of the peptides were dispensed into the appropriate wells and incubated for 2 h at 37° C. […] This was followed by the addition of streptavidin-HRP and chromogenic substrate (R & D systems). The color reaction was terminated with 2N H2SO4, absorbance was recorded at OD450 and referenced to OD540.

hPD-L1 [6] = molecular target: T2, hPD-L1; assay: PD-1/PD-L1 inhibitor screening ELISA, human proteins; assay type: binding; parameters: purchased Acro Biosystems EP-101
Experimental: as §2

[7] = test system: CT26 colorectal tumor-bearing mouse model; assay: Anti-tumor activity in CT26 tumor-bearing Balb/C mice; assay type: in vivo
Source text: (§3) Animal Study. The animal protocol was approved by the University of Missouri-Kansas City, Institutional Animal Care and Use Committee (IACUC). Five-week old male and female Balb/c mice were purchased from Charles Rivers Laboratories (Wilmington, Mass.) and housed in a temperature and humidity controlled room on a 12-hour light-dark cycle. Approximately 5×10^5 CT26 cells were subcutaneously injected into the right flank. The mice were randomly divided into five different groups (10 mice/group, 50% female, 50% male). The mice were intraperitoneally injected with 2 mg/kg peptide daily when the tumor size reached 50-100 mm^3. The anti-mouse PD-L1 antibody (10F.9G2, BioXcell) was administrated as a positive control at a dose of 10 mg/kg every two days. The tumor size was assessed with a caliper and calculated with the formula 0.5×length×width^2. ELISA kits of PD-L1 (Cat #DY1019-05), IFNγ (Cat #DY485-05), and IL-6 (Cat #DY406-05) were used to measure the expressions of PD-L1, IFNγ, and IL-6, respectively, in tumors as per the company's instructions (R & D Systems, Minneapolis, MN).
The anti-mouse PD-L1 antibody (BioXcell, 10F.9G2) was administered intraperitoneally every other day at 10 mg/kg. […] In general, CLP002 (SEQ ID NO:2) exerted a better tumor inhibitory effect than CLP003 (SEQ ID NO:3), which was similar to the antibody. […] In FIG. 6e the weight of the tumors harvested at day 14 is shown. The results were represented as the mean±SD (n=10). It is noteworthy that the peptides were screened against the human PD-L1 protein, which, in fact, would compromise the anti-tumor activity of the peptides in a mouse model.

[8] = test system: IFNγ, PD-L1 and IL-6 in CT26 tumors; assay: ELISA of IFNγ, PD-L1 and IL-6 in harvested CT26 tumors; assay type: in vivo, mouse
Source text: as §3

[9] = test system: CD8+ T cells in CT26 tumor tissues; assay: IHC staining of CD8+ T cells in CT26 tumor tissues; assay type: in vivo, mouse
Experimental: Immunohistochemistry (IHC) Staining. Tumor tissues were fixed in 10% formalin, embedded in paraffin, sectioned, and mounted on glass slides by Truman Medical Centers Anatomic Pathology Core (Kansas City, MO). The slides were heated in Tris buffer (pH 9.0) for 45 min to recover antigen. After deparaffinization and rehydration, the sections were stained with the anti-mouse CD8 alpha antibody (Abcam, ab209775) overnight at 4° C. The slides were incubated with a biotinylated goat anti-rabbit secondary antibody, followed by the DAB chromogen mixture. Four sections (2 male and 2 female) were imaged in each group. For each section, 3 regions were randomly selected for imaging.

[10] = test system: CT26 tumor-bearing Balb/C mice; assay: Survival of CT26 tumor-bearing Balb/C mice; assay type: in vivo, mouse
Source text: as §3
In this Example, mice were intraperitoneally injected with the CLP002 (SEQ ID NO:2) and CLP003 (SEQ ID NO:3) peptides daily or the anti-mouse PD-L1 antibody every other day from day 4 to day 17 (see survival curves in FIG. 7a). Specifically, CT26 tumor-bearing Balb/C mice (n=10, 5 male and 5 female) were intraperitoneally injected with the anti-PD-L1 peptides (2 mg/Kg) daily and the anti-mouse PD-L1 antibody (10 mg/Kg) every other day from day 4 to day 17. GraphPad Prism 7 software (San Diego, Calif.) was used for statistical analysis. Comparison of two survival curves were conducted using the Gehan-Breslow-Wilcoxon test. […] By contrast, only 20% of the mice in the CLP002 (SEQ ID NO:2) group were dead by day 17.

mPD-L1, sequence (Q9EP73 19-239 limits assumed): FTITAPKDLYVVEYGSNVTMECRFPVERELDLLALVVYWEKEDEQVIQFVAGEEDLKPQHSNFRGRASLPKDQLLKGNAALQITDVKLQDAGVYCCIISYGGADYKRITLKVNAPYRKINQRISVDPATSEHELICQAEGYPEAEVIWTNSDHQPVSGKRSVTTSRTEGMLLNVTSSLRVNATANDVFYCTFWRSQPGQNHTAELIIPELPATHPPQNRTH
T2 sequence (Q9NZQ7 19-238 limits assumed): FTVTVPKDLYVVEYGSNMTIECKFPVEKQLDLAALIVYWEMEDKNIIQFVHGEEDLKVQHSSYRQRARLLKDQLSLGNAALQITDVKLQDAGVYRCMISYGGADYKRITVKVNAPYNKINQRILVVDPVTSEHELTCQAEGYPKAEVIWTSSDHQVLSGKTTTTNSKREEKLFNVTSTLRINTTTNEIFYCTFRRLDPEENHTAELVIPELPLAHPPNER
T1 sequence (Q9NZQ7 19-238 limits assumed): as above
human PD-L1/CD80 interaction, sequence (Q9NZQ7 19-238 limits assumed): as above
PD1/PD-L1, sequence (Q9NZQ7 19-238 limits assumed): as above

Compound | kon [1] [M⁻¹ s⁻¹] | Blocking Efficiency (%) (DU145 cancer cell) | Blocking Efficiency (%) (4T1 cancer cell) | IC50 (4T1 cancer cell) [µM] | Blocking efficiency against CD80/PD-L1 interaction [2] | Blocking Efficiency (%) (mPD-L1) | Blocking Efficiency (%) (hPD-L1 [4]) | IC50 (DU145 cancer cell) [µM] | other results
C[C@H](NC(=O)[C@H](CCC(N)=O)NC(=O)[C@H](CC(N)=O)NC(=O)[C@H](C)NC(=O)[C@H](Cc1c[nH]cn1)NC(=O)[C@@H]1CCCN1C(=O)[C@H](CCCNC(=N)N)NC(=O)[C@H](Cc1ccccc1)NC(=O)[C@@H]1CCCN1C(=O)[C@H](Cc1ccc(O)cc1)NC(=O)[C@@H](N)Cc1c[nH]cn1)C(=O)N[C@@H](CO)C(=O)O [CLP001] (H-HYPFRPHANQAS-OH; N-terminus and C-terminus assumed) | 5190 | 0 | 35 | 0.91 | approximately 17% | 34 | 0 |  | Effect on Jurkat T cell proliferation [3]: did not observe the same effect; Blocking of the human PD-1/PD-L1 interaction (in words) (hPD-L1 [4]; peptides at 10 μM, FIG. 2c): did not block
C[C@@H](O)[C@H](NC(=O)[C@H](Cc1ccc(O)cc1)NC(=O)[C@H](Cc1ccc(O)cc1)NC(=O)[C@H](CO)NC(=O)[C@H](CCCNC(=N)N)NC(=O)[C@H](Cc1c[nH]cn1)NC(=O)[C@@H](N)Cc1c[nH]c2ccccc12)C(=O)N[C@@H](Cc1c[nH]c2ccccc12)C(=O)N[C@@H](CC(N)=O)C(=O)O [CLP2TR3] (H-WHRSYYTWN-OH; N-terminus and C-terminus assumed) |  |  |  |  |  |  |  |  | half-life [5]: 15 min; % Blocking efficiency at 10 μM (PD1/PD-L1): 80%; % Blocking efficiency at 10 μM (ELISA) hPD-L1 (hPD-L1 [6]): 80%
CC(C)C[C@H](NC(=O)[C@H](Cc1c[nH]c2ccccc12)NC(=O)[C@H](CCCNC(=N)N)NC(=O)[C@H](Cc1c[nH]c2ccccc12)NC(=O)[C@H](CC(N)=O)NC(=O)[C@H](Cc1ccc(O)cc1)NC(=O)[C@H](CO)NC(=O)[C@H](Cc1ccccc1)NC(=O)[C@H](Cc1c[nH]cn1)NC(=O)[C@@H](N)Cc1c[nH]c2ccccc12)C(=O)N1CCC[C@H]1C(=O)N1CCC[C@H]1C(=O)O [CLP003] (H-WHFSYNWRWLPP-OH; N-terminus and C-terminus assumed) | 22600 | 56 | 50 | 1 |  |  |  | 3.05 | Kd [1]: 0.117 µM; Tumor growth ([7]; peptides 2 mg/kg i.p. daily, antibody 10 mg/kg i.p. every other day): effectively suppressed tumor growth; Tumor weights at day 14 ([7]; versus saline group): significantly smaller than the saline group; IL-6 expression in tumor tissues [8]: decreased expression of IL-6; Density of CD8+ T cells in tumor tissues [9]: significantly increased; Tumor growth in the survival study ([10]; Example 7, individual growth curves): other mice experienced a rapid tumor progression; Mice died on day 17 (in words) ([10]; n=10): only one mouse died on day 17; Survival of tumor-bearing mice ([10]; treatment from day 4 to day 17): modestly improved the survival; IC50 (hPD-L1 [4]; plate coated with human PD-L1 protein): 2.22 µM
CC(C)C[C@H](NC(=O)[C@@H](NC(=O)[C@@H]1CCCN1C(=O)[C@H](CC(C)C)NC(=O)[C@H](CO)NC(=O)[C@@H]1CCCN1C(=O)[C@H](CC(=O)O)NC(=O)[C@H](Cc1c[nH]cn1)NC(=O)[C@H](Cc1ccc(O)cc1)NC(=O)[C@@H](N)CC(=O)O)[C@@H](C)O)C(=O)N[C@@H](CCCNC(=N)N)C(=O)N[C@@H](CCCCN)C(=O)O [CLP004] (H-DYHDPSLPTLRK-OH; N-terminus and C-terminus assumed) | 5140 | 60 | 34 | 0.73 | ~27% | 48 | 52 | 0.2 | IC50 (mPD-L1): 1.91 µM
